Test results reported in patent US7034048B2, “Gastrin and cholecystokinin receptor ligands (III)” (James Black Foundation Limited, priority 2000, dated 2006).

These compounds were tested against T1, gastrin (CCK2) receptors (Rattus norvegicus, UniProt P30553) (assay: immature rat stomach assay, gastrin (CCK2) antagonist activity against pentagastrin-stimulated acid secretion). Conditions: isolated immature rat stomach, 60 min incubation, then cumulative pentagastrin dose-response curves, read-out: Rat Stomach pKB (converted).
T1 construct: The stomach was excised and flushed with ca. 1 ml of unbuffered physiological saline solution; from tissue; host or cells: isolated, lumen-perfused stomach of immature rats (33-50 g, ca. 21 days old)
T1 sequence (P30553 1-452): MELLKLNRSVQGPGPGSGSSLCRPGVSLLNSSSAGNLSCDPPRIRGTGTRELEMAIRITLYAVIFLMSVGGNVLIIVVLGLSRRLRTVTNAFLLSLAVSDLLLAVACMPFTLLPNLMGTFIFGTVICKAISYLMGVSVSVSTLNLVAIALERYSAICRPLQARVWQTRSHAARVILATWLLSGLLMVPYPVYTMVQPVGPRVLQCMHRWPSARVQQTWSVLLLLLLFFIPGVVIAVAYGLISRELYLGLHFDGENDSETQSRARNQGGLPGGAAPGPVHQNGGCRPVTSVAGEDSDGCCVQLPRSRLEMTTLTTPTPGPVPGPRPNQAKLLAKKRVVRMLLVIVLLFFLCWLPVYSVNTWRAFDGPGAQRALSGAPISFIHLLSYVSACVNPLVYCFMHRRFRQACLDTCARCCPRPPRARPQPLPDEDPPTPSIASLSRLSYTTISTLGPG
Protocol: The compounds of the examples were tested for gastrin (CCK2) antagonist activity in an immature rat stomach assay. The procedure was as follows: The oesophagus of immature rats (33–50 g, ca. 21 days old) was ligated at the level of the cardiac sphincter and the duodenal sphincter was cannulated. The stomach was excised and flushed with ca. 1 ml of unbuffered physiological saline solution. The fundus was punctured and cannulated. A further 4–5 ml of unbuffered solution was flushed through the stomach to ensure the preparation was not leaking. The stomach was lowered into a jacketed organ bath containing 40 ml of buffered solution containing 3×10^−8 M 5-methylfurmethide, maintained at 37° and gassed vigorously with 95% O2/5% CO2. The stomach was continuously perfused at a rate of 1 ml min^−1 with unbuffered solution gassed with 100% O2 with the perfusate passing over an internally referenced pH-electrode fixed 12 cm above the stomach. After 120 min of stabilisation the drugs were added directly to the serosal solution in the organ bath and after a further 60 min cumulative pentagastrin dose-response curves were started. Changes in acid secretion were monitored and the curves analysed according to Black et al., Br. J. Pharmacol. 1985, 86, 581.
`O=C(O)c1ccc2oc(-c3nc(C4CCCCC4)[nH]c3COC34CC5CC(CC(C5)C3)C4)nc2c1` [Example 1, 2-[5-(Adamantan-1-yloxymethyl)-2-cyclohexyl-1H-imidazole-4-yl]-benzooxazole-5-carboxylic acid] gave a Kb of 3.31 µM. With `O=C(O)c1ccc2nc(-c3nc(C4CCCCC4)[nH]c3COC34CC5CC(CC(C5)C3)C4)oc2c1` [Example 2, 2-[5-(Adamantan-1-yloxymethyl)-2-cyclohexyl-1H-imidazole-4-yl]-benzooxazole-6-carboxylic acid] the Kb was 1.62 µM. In the case of `O=C(O)c1ccc2[nH]c(-c3nc(C4CCCCC4)[nH]c3COC34CC5CC(CC(C5)C3)C4)nc2c1` [Example 3, 2-[5-(Adamantan-1-yloxymethyl)-2-cyclohexyl-1H-imidazole-4-yl]-1H-benzoimidazole-5-carboxylic acid], the Kb is reported as 3.39 µM. Compound `O=C(O)c1cccc2[nH]c(-c3nc(C4CCCCC4)[nH]c3COC34CC5CC(CC(C5)C3)C4)nc12` [Example 4, 2-[5-(Adamantan-1-yloxymethyl)-2-cyclohexyl-1H-imidazole-4-yl]-1H-benzoimidazole-4-carboxylic acid] has a Kb of 0.372 µM. `O=C(O)Cc1ccc2oc(-c3nc(C4CCCCC4)[nH]c3COC34CC5CC(CC(C5)C3)C4)nc2c1` [Example 5, {2-[5-(Adamantan-1-yloxymethyl)-2-cyclohexyl-1H-imidazole-4-yl]-benzooxazol-5-yl}-acetic acid] was tested, and the Kb was 2.04 µM.
